From the NIST ThermoML archive (doi:10.1016/j.jct.2018.02.001)

Tests used:
[1] = mn = molality of the nth substance listed, in mol/kg; settings: 100 kPa, Liquid, Vibrating tube method
[2] = 101.33 kPa, Liquid, Vibrating tube method

CCCCCCCC[n+]1ccn(CC)c1.[Br-] [1-ethyl-3-octyl-1H-imidazolium bromide] + O
mass density [kg/m3], [1]
Settings | 293.15 K | 298.15 K | 303.15 K | 308.15 K
m1 = 0.0128 | 998.68 | 997.48 | 995.95 | 994.18
m1 = 0.0143 | 998.75 | 997.55 | 996.03 | 994.25
m1 = 0.0149 | 998.78 | 997.58 | 996.06 | 994.27
m1 = 0.0171 | 998.87 | 997.68 | 996.14 | 994.36
m1 = 0.0206 | 999.02 | 997.83 | 996.29 | 994.5
m1 = 0.0216 | 999.07 | 997.87 | 996.33 | 994.55
m1 = 0.026 | 999.25 | 998.06 | 996.51 | 994.71
m1 = 0.0313 | 999.47 | 998.28 | 996.73 | 994.91
m1 = 0.0355 | 999.65 | 998.45 | 996.91 | 995.08
m1 = 0.0377 | 999.74 | 998.54 | 997 | 995.16
m1 = 0.0436 | 999.99 | 998.77 | 997.24 | 995.39

CCCCCC[n+]1ccn(CC)c1.[Br-] [1-ethyl-3-hexyl-1H-imidazolium bromide] + O
mass density [kg/m3], [1]
Settings | m1 = 0.0092 | m1 = 0.012 | m1 = 0.0168 | m1 = 0.02 | m1 = 0.0248 | m1 = 0.0295 | m1 = 0.0358 | m1 = 0.0432 | m1 = 0.0495
293.15 K | 998.59 | 998.73 | 998.92 | 999.06 | 999.26 | 999.47 | 999.75 | 1000.07 | 1000.35
298.15 K | 997.35 | 997.48 | 997.66 | 997.79 | 998 | 998.2 | 998.48 | 998.8 | 999.08
303.15 K | 995.82 | 995.93 | 996.11 | 996.24 | 996.43 | 996.64 | 996.9 | 997.21 | 997.48
308.15 K | 994.05 | 994.09 | 994.21 | 994.33 | 994.51 | 994.7 | 994.96 | 995.26 | 995.51

CCCCCCCCCCCC[n+]1ccn(CCCC)c1.[Br-] [1-butyl-3-dodecyl-1H-imidazolium bromide] + O
mass density [kg/m3], [1]
Settings | 293.15 K | 298.15 K | 303.15 K
m1 = 0.0055 | 998.33 | 997.09 | 995.65
m1 = 0.0082 | 998.38 | 997.13 | 995.66
m1 = 0.0092 | 998.4 | 997.15 | 995.68
m1 = 0.0149 | 998.51 | 997.26 | 995.7
m1 = 0.0217 | 998.64 | 997.39 | 995.82
m1 = 0.0252 | 998.71 | 997.46 | 995.9
m1 = 0.0317 | 998.83 | 997.58 | 996
m1 = 0.0337 | 998.87 | 997.62 | 996.04
m1 = 0.0399 | 999 | 997.74 | 996.15
m1 = 0.0479 | 999.15 | 997.88 | 996.3
m1 = 0.0503 | 999.19 | 997.92 | 996.34

CCCCCCCC[n+]1ccn(CCCC)c1.[Br-] [1-butyl-3-octyl-1H-imidazolium bromide] + O
mass density [kg/m3], [1]
Settings | m1 = 0.0055 | m1 = 0.01 | m1 = 0.015 | m1 = 0.0216 | m1 = 0.0285 | m1 = 0.0346 | m1 = 0.0412 | m1 = 0.0498
293.15 K | 998.38 | 998.55 | 998.75 | 999.02 | 999.32 | 999.58 | 999.85 | 1000.22
298.15 K | 997.16 | 997.36 | 997.53 | 997.77 | 998.04 | 998.28 | 998.54 | 998.88
303.15 K | 995.68 | 995.77 | 995.96 | 996.2 | 996.48 | 996.71 | 996.97 | 997.31
308.15 K | 994.05 | 994.08 | 994.1 | 994.32 | 994.61 | 994.83 | 995.08 | 995.4

CCn1cc[n+](CC)c1.[Br-] [1,3-diethyl-1H-imidazolium bromide]
[2]
Settings | mass density [kg/m3]
293.15 K | 1355.06
298.15 K | 1351.21
303.15 K | 1347.51
308.15 K | 1343.75
313.15 K | 1339.95
318.15 K | 1336.13
323.15 K | 1332.29

CCCCCC[n+]1ccn(CC)c1.[Br-] [1-ethyl-3-hexyl-1H-imidazolium bromide]
[2]
Settings | mass density [kg/m3]
293.15 K | 1197.06
298.15 K | 1193.59
303.15 K | 1190.1
308.15 K | 1186.58
313.15 K | 1183.02
318.15 K | 1179.46
323.15 K | 1175.88

CCCCCCCCCCCC[n+]1ccn(CC)c1.[Br-] [3-dodecyl-1-ethyl-1H-imidazolium bromide] + O
mass density [kg/m3], [1]
Settings | m1 = 0.0061 | m1 = 0.0074 | m1 = 0.0109 | m1 = 0.015 | m1 = 0.021 | m1 = 0.0257 | m1 = 0.0362 | m1 = 0.0521
293.15 K | 998.38 | 998.42 | 998.52 | 998.64 | 998.81 | 998.94 | 999.24 | 999.68
298.15 K | 997.16 | 997.19 | 997.27 | 997.38 | 997.53 | 997.65 | 997.91 | 998.31
303.15 K | 995.65 | 995.68 | 995.73 | 995.83 | 995.99 | 996.12 | 996.37 | 996.72

CCCCCC[n+]1ccn(CCCC)c1.[Br-] [1-butyl-3-hexyl-1H-imidazolium bromide] + O
mass density [kg/m3], [1]
Settings | m1 = 0.0051 | m1 = 0.0109 | m1 = 0.01511 | m1 = 0.01999 | m1 = 0.02536 | m1 = 0.03025 | m1 = 0.03503 | m1 = 0.03996 | m1 = 0.0452 | m1 = 0.05
293.15 K | 998.4 | 998.6 | 998.8 | 999 | 999.22 | 999.42 | 999.62 | 999.82 | 1000.03 | 1000.23
298.15 K | 997.22 | 997.41 | 997.6 | 997.79 | 998.01 | 998.2 | 998.39 | 998.58 | 998.79 | 998.978
303.15 K | 995.73 | 995.88 | 996.06 | 996.24 | 996.44 | 996.64 | 996.82 | 997.01 | 997.21 | 997.38
308.15 K | 994.04 | 994.09 | 994.2 | 994.38 | 994.6 | 994.81 | 994.99 | 995.17 | 995.35 | 995.51

CCn1cc[n+](CC)c1.[Br-] [1,3-diethyl-1H-imidazolium bromide] + O
mass density [kg/m3], [1]
Settings | m1 = 0.01477 | m1 = 0.01845 | m1 = 0.02167 | m1 = 0.0271 | m1 = 0.03151 | m1 = 0.035 | m1 = 0.04375 | m1 = 0.04513 | m1 = 0.05018
293.15 K | 998.92 | 999.11 | 999.27 | 999.55 | 999.78 | 999.96 | 1000.42 | 1000.49 | 1000.75
298.15 K | 997.72 | 997.91 | 998.07 | 998.35 | 998.57 | 998.75 | 999.19 | 999.26 | 999.51
303.15 K | 996.18 | 996.36 | 996.52 | 996.8 | 997.03 | 997.2 | 997.63 | 997.7 | 997.94
308.15 K | 994.23 | 994.41 | 994.58 | 994.87 | 995.11 | 995.29 | 995.71 | 995.77 | 995.97

CCCCn1cc[n+](CCCC)c1.[Br-] [1,3-dibutylimidazolium bromide]
[2]
Settings | mass density [kg/m3]
293.15 K | 1197.07
298.15 K | 1193.75
303.15 K | 1190.32
308.15 K | 1186.85
313.15 K | 1183.34
318.15 K | 1180.06
323.15 K | 1176.52

CCCCCCCC[n+]1ccn(CC)c1.[Br-] [1-ethyl-3-octyl-1H-imidazolium bromide]
[2]
Settings | mass density [kg/m3]
293.15 K | 1148.89
298.15 K | 1145.43
303.15 K | 1141.74
308.15 K | 1138.13
313.15 K | 1134.69
318.15 K | 1131.07
323.15 K | 1127.5

CCCCCCCC[n+]1ccn(CCCC)c1.[Br-] [1-butyl-3-octyl-1H-imidazolium bromide]
[2]
Settings | mass density [kg/m3]
293.15 K | 1123.09
298.15 K | 1119.72
303.15 K | 1116.27
308.15 K | 1112.79
313.15 K | 1109.25
318.15 K | 1105.74
323.15 K | 1102.23

CCCCn1cc[n+](CCCC)c1.[Br-] [1,3-dibutylimidazolium bromide] + O
mass density [kg/m3], [1]
Settings | m1 = 0.01076 | m1 = 0.01516 | m1 = 0.02165 | m1 = 0.02575 | m1 = 0.03042 | m1 = 0.0354 | m1 = 0.04047
293.15 K | 998.64 | 998.84 | 999.13 | 999.32 | 999.54 | 999.77 | 1000
298.15 K | 997.46 | 997.65 | 997.93 | 998.11 | 998.31 | 998.52 | 998.74
303.15 K | 995.91 | 996.08 | 996.4 | 996.57 | 996.78 | 996.98 | 997.16
308.15 K | 994.12 | 994.3 | 994.63 | 994.79 | 995 | 995.2 | 995.35

CCCC[n+]1ccn(CC)c1.[Br-] [1-butyl-3-ethylimidazolium bromide]
[2]
Settings | mass density [kg/m3]
293.15 K | 1263.23
298.15 K | 1259.4
303.15 K | 1255.95
308.15 K | 1252.45
313.15 K | 1248.92
318.15 K | 1245.45
323.15 K | 1241.93
